Non-standard residues stand in square brackets, D forms with d. No end group written: not given here. pS = N[C@@H](COP(=O)(O)O)C(=O)O

The values that follow come from patent US10640535B2, “Identification of MHC class I phospho-peptide antigens from breast cancer utilizing SHLA technology and complementary enrichment strategies” (Agenus Inc., priority 2012, dated 2020).

The subject of this test is phosphopeptide-specific CTL. Kind of test: Recognition of naturally processed phosphopeptides on cancer cell lines by phosphopeptide-specific CTL (murine IFNγ ELISA). The test is classed as cell-based. The settings on record: 24 hours with COV413.AAD.A4, DM331.AAD.A4, SLM2.AAD.A1, MCF7.AAD.A2, MDAMB231.AAD cancer lines and JY EBV-BLCL control. The protocol:
FIG. 1, comprising FIGS. 1A and 1B, is a graphic illustration of the recognition of naturally processed and presented phosphorylated peptides on cancer cells by the phosphopeptide-specific CTL. Phosphopeptide-specific CTL were incubated with the following cancer cell lines or EBV-transformed B lymphoblastoid cell lines (BLCL): COV413.AAD.A4 ovarian carcinoma, DM331.AAD.A4 and SLM2.AAD.A1 melanomas, MCF7.AAD.A2 and MDAMB231.AAD breast carcinomas, and JY EBV-BLCL. Supernatants were harvested and evaluated for the presence of murine IFNγ (produced by murine CTL lines). […] The ordinate indicates murine IFNγ in pg/ml. The abscissa indicates each cell line.
CTL specific for two of the antigen peptides were generated by long term culture with the peptides. Two CTL lines specific for the antigen peptide GLLGpSPVRA, lines 6850 and 6960, SEQ ID NO: 13, and two CTL lines specific for the antigen peptide RVApSPTSGV, SEQ ID NO: 14, lines 5183 and 63 were used to detect these two antigen peptides on cancer cells. […] Supernatants were harvested 24 hours later and evaluated for the presence of murine IFN[…] (produced by murine CTL lines) by ELISA (eBioscience Ready-Set-go murine IFN[…] ELISA kit).

As for “RVApSPTSGV (RVA[pS]PTSGV; listed as Homo sapiens) [phosphopeptide from Insulin receptor substrate-2, HLA-A2.1]”, the “recognition of the phosphopeptide on cell lines by phosphopeptide-specific CTL (murine IFNγ in supernatant)” value (CTL lines 5183 and 63, FIG. 1B) is listed as “recognize the phosphopeptide on all the cancer cell lines, but not the control cell line”.

On to “GLLGpSPVRA (GLLG[pS]PVRA; listed as Homo sapiens) [phosphopeptide from CDC25b:p63, HLA-A2.1]”, for which, where the note is “CTL lines 6850 and 6960, FIG. 1A”, the “recognition of the phosphopeptide on cell lines by phosphopeptide-specific CTL (murine IFNγ in supernatant)” value is “recognize the phosphopeptide on all the cancer cell lines, but not the control cell line”.
